Results on 47 molecules are retold here after patent US11286268B1, “EIF4E-inhibiting compounds and methods” (EFFECTOR THERAPEUTICS, INC., priority 2019, dated 2022).

This assay deals with recombinant eIF4E (Homo sapiens (Human), UniProt P06730). As to the kind of experiment: Fluorescence polarization competition assay for eIF4E binding potency. In short, it runs like this: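 FP readout; IC50 fit from 8-point, 3-fold series. 75 nM eIF4E + 20 nM ATTO-550-labelled m7GDP probe, Tris pH 7.5/NaCl/DTT/Tween buffer, 1% DMSO final. 30 min RT equilibration, light-protected.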
In general terms: Fluorescence polarisation rises when a labelled molecule tumbles more slowly, as on binding a larger partner.

Where [1] appears, read: fluorescence polarization competition, 75 nM recombinant eIF4E, 20 nM EDA-m7GDP-ATTO-550, IC50 class, read-out: elF4E FP.
[2] abbreviates: inhibition of eIF4E/EDA-m7GDP-ATTO-550 binding by 50%, Table 4B calculated values, read-out: IC50.
Setting [3] is: inhibition of eIF4E/EDA-m7GDP-ATTO-550 binding, calculated IC50 values, Table 4B, read-out: IC50.

Like-named read-outs stand apart in the source and are kept apart here.

recombinant eIF4E, sequence (P06730 whole entry): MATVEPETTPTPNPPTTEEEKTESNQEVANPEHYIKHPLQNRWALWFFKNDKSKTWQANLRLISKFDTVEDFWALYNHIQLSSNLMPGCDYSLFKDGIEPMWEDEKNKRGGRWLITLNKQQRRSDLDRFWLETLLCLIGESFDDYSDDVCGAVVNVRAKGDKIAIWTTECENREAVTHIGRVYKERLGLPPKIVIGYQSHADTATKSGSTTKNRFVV

As for `Cn1cc(CCOc2ccc(Cl)cc2-c2ccnc3c(C(=O)O)csc23)c(=O)c2c(C#N)cc(C(F)(F)F)cc21` [compound 353], the IC50 runs as follows: under setting [1], 50 to 1000 nM; under setting [2], 101 nM. In the case of `Cc1nc2cnc(N(C)C3CCN(C4CC(F)(F)C4)CC3)c(C#N)c2c(=O)n1CC#Cc1ccc(Cl)cc1-c1ccnc2c(C(=O)NS(=O)(=O)c3ccccn3)csc12` [compound 1830], the IC50 under setting [3] was 8.06 nM.

On to `Cc1nc2cc(C#N)cc(C#N)c2c(=O)n1CC#Cc1ccc(Cl)cc1-c1ccnc2c(C(=O)O)csc12` [compound 258], for which the IC50 by setting is: under setting [1], less than 50 nM; under setting [2], 37.7 nM. Taken in the same sequence, the figures for `Cc1nc2cc(C(F)(F)F)c(N3CC4(C3)CN(C3CC3)C4)c(C#N)c2c(=O)n1CCCc1ccc(Cl)cc1-c1ccnc2c(C(=O)O)csc12` [compound 1158] were less than 50 nM and 15.8 nM. As for `Cc1nc2cnc(N(C)C3CCN(CC(F)(F)F)CC3)c(C#N)c2c(=O)n1CC#Cc1ccc(Cl)cc1-c1ccnc2c(C(=O)NS(C)(=O)=O)csc12` [compound 1501], under setting [3], the IC50 was 20.5 nM. `Cc1nc2cc(C(F)(F)F)cc(C#N)c2c(=O)n1CCOc1ccc(Cl)cc1-c1cc(C2CC2)nc2c(C(=O)O)csc12` [compound 672]: the IC50 is 50 to 1000 nM under setting [1] and 106 nM under setting [2]. On to `Cc1cc(-c2cc(Cl)ccc2OCCn2c(C)nc3cc(C(F)(F)F)c(N4CCN(C)CC4)c(C#N)c3c2=O)c2sccc2n1` [compound 836], for which the IC50 is less than 50 nM under setting [1] and 2.33 nM under setting [2].

For `Cc1nc2cnc(N3CC4(CN(CCOC(F)(F)F)C4)C3)c(C#N)c2c(=O)n1CC#Cc1ccc(Cl)cc1-c1ccnc2c(C(=O)O)csc12` [compound 894], the IC50 reads like this: under setting [1], less than 50 nM; under setting [2], 21.6 nM.

In the case of `Cc1nc2cnc(N(C)C3CCN([C@H]4C[C@H](F)C4)CC3)c(C#N)c2c(=O)n1CC#Cc1ccc(Cl)cc1-c1ccnc2c(C(=O)NS(=O)(=O)c3ccccn3)csc12` [compound 1793], the IC50 under setting [3] was 7.29 nM. For `CCN(c1ncc2nc(C)n(CC#Cc3ccc(Cl)cc3-c3ccnc4c(C(=O)NS(=O)(=O)C(C)C)csc34)c(=O)c2c1C#N)C1CCN(C2COC2)CC1` [compound 1746], the IC50 under setting [3] was 10.8 nM. On to `Cc1cc(-c2cc(Cl)ccc2OCCn2c(C)nc3c(C)nc(N4CCN(C)CC4)c(C#N)c3c2=O)c2scc(C(=O)O)c2n1` [compound 875], for which, under setting [1], the IC50 was less than 50 nM. As to `Cc1nc2cnc(N3CCN(C(C)(C)CF)CC3)c(C#N)c2c(=O)n1CCOc1ccc(Cl)cc1-c1ccnc2c(C(=O)NS(C)(=O)=O)csc12` [compound 1483], under setting [3], the IC50 is 13.7 nM. As for `Cc1nc2cnc(N(C)C3CCN(CC(F)(F)C4CC4)CC3)c(C#N)c2c(=O)n1CCOc1ccc(Cl)cc1-c1ccnc2c(C(=O)O)csc12` [compound 1126], the IC50 is less than 50 nM under setting [1] and 26.6 nM under setting [2]. On to `N#Cc1cccc2nc(C(F)F)n(CCOc3ccc(Cl)cc3-c3cccc4c(C(=O)O)csc34)c(=O)c12` [compound 2017], for which the IC50 under setting [3] is 50.6 nM. With `Cc1nc2cc(C(F)(F)F)cc(C#N)c2c(=O)n1CCOc1ccc(Cl)cc1-c1ccnc2c1CCC2C(=O)O` (centres unmarked) [compound 496], the IC50 under setting [1] is more than 1000 nM and the IC50 under setting [2] was 1060 nM. Consider `Cc1cc(-c2cc(Cl)ccc2OCCn2c(C)nc3c(C)nc(N4CCC(O)C4)c(C#N)c3c2=O)c2scc(C(=O)O)c2n1` (centres unmarked) [compound 1149], for which the IC50 under setting [1] is less than 50 nM and the IC50 under setting [2] is 4.19 nM.

As to `N#Cc1cc2c(=O)n(CCOc3ccc(Cl)cc3-c3cccc(C(=O)O)c3)cnc2cn1` [compound 66], the IC50 was 50 to 1000 nM under setting [1] and 187 nM under setting [2]. For `Cc1nc2c(C(F)(F)F)ccc(C#N)c2c(=O)n1CCOc1ccc(Cl)cc1-c1ccnc2c(C(=O)O)csc12` [compound 358] the same measures were 50 to 1000 nM and 86.3 nM. Regarding `N#Cc1cc(C(F)(F)F)cc2ncn(CCOc3ccc(Cl)cc3-c3ccnc4c(C(=O)O)csc34)c(=O)c12` [compound 164], the IC50 under setting [2] was 16.4 nM.

In the case of `Cc1nc2cnc(C3CCC(F)(F)C3)c(C#N)c2c(=O)n1CCOc1ccc(Cl)cc1-c1ccnc2c(C(=O)O)csc12` (centres unmarked) [compound 1279], the IC50 under setting [3] is 8.91 nM. On to `CS(=O)(=O)c1cc(C(=O)O)cc(-c2cc(Cl)ccc2OCCn2cnc3cnc(C#N)cc3c2=O)c1` [compound 112], for which the IC50 reads like this: under setting [1], more than 1000 nM; under setting [2], more than 3000 nM. Taken in the same sequence, the figures for `COc1c(C)n(CCOc2ccc(Cl)cc2-c2ccnc3c(C(=O)O)csc23)c(=O)c2c(C#N)cc(C(F)(F)F)cc12` [compound 309] were 50 to 1000 nM and 52.5 nM. For `Cc1cc(-c2cc(Cl)ccc2OCCn2c(C)nc3cnc(N4CCC(O)C4)c(C#N)c3c2=O)c2scc(C(=O)O)c2n1` (centres unmarked) [compound 1056] the same measures were less than 50 nM and 16.1 nM.

Regarding `Cc1cc(-c2cc(Cl)ccc2OCCn2c(C)nc3cc(C(F)(F)F)c(-c4cn(C)cn4)c(C#N)c3c2=O)c2scc(C(=O)O)c2n1` [compound 907], the IC50 under setting [1] is less than 50 nM and the IC50 under setting [2] is 7.76 nM.

In the case of `Cc1sc2c(-c3cc(Cl)ccc3OCCn3c(C)nc4cc(C(F)(F)F)c(N5CCN(C)CC5)cc4c3=O)ccnc2c1C(=O)O` [compound 1210], the IC50 under setting [1] was less than 50 nM and the IC50 under setting [3] is 48.3 nM. With `Cc1nc2c(N3CCN(CCOC(F)(F)F)CC3)ncc(C#N)c2c(=O)n1CCOc1ccc(Cl)cc1-c1ccnc2c(C(=O)O)csc12` [compound 1395], the IC50 under setting [3] is 29.6 nM. `Cc1cc(-c2cc(Cl)ccc2OCCn2c(C)nc3cc(C(F)(F)F)c(CN4CCN(C)CC4)c(C#N)c3c2=O)c2scc(C(=O)O)c2n1` [compound 485]: the IC50 was less than 50 nM under setting [1] and 8.59 nM under setting [2]. For `Cc1nc2cnc(C3CC3)c(C#N)c2c(=O)n1CCOc1ccc(Cl)cc1-n1cnc2c(C(=O)O)cccc21` [compound 756] the same measures were less than 50 nM and 43.2 nM. Taken in the same sequence, the figures for `COC(=O)c1csc2c(-c3cc(Cl)ccc3C#CCn3c(C)nc4cnc(N5CCN(CCOC(F)(F)F)CC5)c(C#N)c4c3=O)ccnc12` [compound 1104] were 50 to 1000 nM and 631 nM. Take `Cc1cc(-c2cc(Cl)ccc2OCCn2c(C)nc3cc(C(F)(F)F)c(-c4ccccn4)c(C#N)c3c2=O)c2scc(C(=O)O)c2n1` [compound 631]: the IC50 under setting [1] is less than 50 nM and the IC50 under setting [2] is 3.41 nM. With `Cc1nc2cnc(NC3CCCC3)cc2c(=O)n1CCOc1ccc(Cl)cc1-c1cccc(C(=O)O)c1` [compound 2005], the IC50 under setting [3] is 364 nM. Turning to `Cc1cc(-c2cc(Cl)ccc2OCCn2c(C)nc3cncc(C#N)c3c2=O)c2scc(C(=O)O)c2n1` [compound 597], the IC50 is, setting by setting: under setting [1], less than 50 nM; under setting [2], 46.8 nM. For `Cc1nc2cnc(N(C)C3CCN(C4CC4)CC3)c(C#N)c2c(=O)n1CC#Cc1ccc(Cl)cc1-c1ccnc2c(C(=O)O)csc12` [compound 1171] the same measures were less than 50 nM and 13 nM. With `Cc1cc(-c2cc(Cl)ccc2OCCn2c(C)nc3c(-c4ccccc4)ncc(C#N)c3c2=O)c2scc(C(=O)O)c2n1` [compound 1378], the IC50 under setting [3] is 30 nM. `N#Cc1cc2c(=O)n(CCOc3ccc(Cl)cc3-c3cc(C(=O)O)cs3)cnc2cn1` [compound 83]: the IC50 is, setting by setting: under setting [1], more than 1000 nM; under setting [2], 2560 nM. Turning to `O=C(O)c1cccc(-c2cc(Cl)ccc2OCCn2cnc3c(C(F)(F)F)nccc3c2=O)c1` [compound 1993], under setting [3], the IC50 is 412 nM. Still for that read-out and setting: for `Cc1nc2cnc(N3CCN(CCS(C)(=O)=O)CC3)c(C#N)c2c(=O)n1CCOc1ccc(Cl)cc1-c1ccnc2c(C(=O)O)csc12` [compound 1339] the value was 36.4 nM. As for `Cc1nc2cc(C(F)(F)F)c(CN(C)C)c(C#N)c2c(=O)n1CCOc1cc(F)c(Cl)cc1-c1ccnc2c(C(=O)O)csc12` [compound 503], the IC50 runs as follows: under setting [1], less than 50 nM; under setting [2], 8.67 nM. Consider `Cc1nc2cnc(N(C)C3CCN(CC4(F)COC4)CC3)c(C#N)c2c(=O)n1CC#Cc1ccc(Cl)cc1-c1ccnc2c(C(=O)O)csc12` [compound 1185], for which the IC50 under setting [1] was less than 50 nM and the IC50 under setting [2] was 17.6 nM. As to `Cc1nc2cc(S(C)(=O)=O)c(Cl)c(C#N)c2c(=O)n1CCOc1ccc(Cl)cc1-c1ccnc2c(C(=O)O)csc12` [compound 277], the IC50 under setting [1] is less than 50 nM and the IC50 under setting [2] is 30.7 nM.

Take `Cc1nc2cnc(OC3CCNCC3)c(C#N)c2c(=O)n1CCOc1ccc(Cl)cc1-c1ccnc2c(C(=O)O)csc12` [compound 819]: the IC50 is less than 50 nM under setting [1] and 28.2 nM under setting [2]. Taken in the same sequence, the figures for `Cc1nc2cc(C(F)(F)F)c(OCCN3CCNCC3)c(C#N)c2c(=O)n1CCOc1ccc(Cl)cc1-c1ccnc2ccsc12` [compound 853] were less than 50 nM and 31.9 nM.

Regarding `Cc1nc2cnc(N3CCN4CCC3C4)c(C#N)c2c(=O)n1CCOc1ccc(Cl)cc1-c1ccnc2c(C(=O)O)csc12` (centres unmarked) [compound 1348], the IC50 under setting [3] was 12.2 nM. Same read-out and setting: for `CCN(c1ncc2nc(C)n(CC#Cc3ccc(Cl)cc3-c3ccnc4c(C(=O)NS(=O)(=O)Cc5ccccn5)csc34)c(=O)c2c1C#N)C1CCN(C2COC2)CC1` [compound 1738] the value was 25.5 nM. As to `Cc1cc(-c2cc(Cl)ccc2OCCn2c(C)nc3cnc(C)c(C#N)c3c2=O)c2scc(C(=O)O)c2n1` [compound 419], the IC50 under setting [1] was less than 50 nM. Consider `CCN(c1ncc2nc(C)n(CC#Cc3ccc(Cl)cc3-c3ccnc4c(C(=O)O)csc34)c(=O)c2c1C#N)C1CCN(CC(C)(F)F)CC1` [compound 1177], for which the IC50 is less than 50 nM under setting [1] and 34.2 nM under setting [2].

For the molecule `Cc1cc(-c2cc(Cl)ccc2OCCn2c(C)nc3cc(C(F)(F)F)c(CCCN(C)C)c(C#N)c3c2=O)c2scc(C(=O)O)c2n1` [compound 709], the IC50 reads like this: under setting [1], 50 to 1000 nM; under setting [2], 56.7 nM.
